Measured values as given in US8822517B2, “Arylosulfonamides for the treatment of CNS diseases” (Adamed SP. Z O.O., priority 2010, dated 2014).

How the values were obtained:
[1] = molecular target: T1, serotonine transporter (SERT) receptor (Homo sapiens, UniProt P31645); test: Binding assay SERT (h), [3H]imipramine, CHO cells; details: read-out: SERT [%]
T1 construct: expressed in transfected cells; host or cells: CHO cells
In short: (§1)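 Binding read by scintillation counting. Non-specific component defined by excess unlabelled ligand and removed from total counts. Compounds at 1×10^−6 M.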

sigma σ receptor = test: Binding assay σ (non-selective), [3H]DTG, rat cerebral cortex; details: percent inhibition of control specific binding; compounds tested at 1×10^−6 M
In short: as §1

adrenergic α1 receptor = test: Binding assay α1 (non-selective), [3H]prazosin, rat cerebral cortex; details: percent inhibition of control specific binding; compounds tested at 1×10^−6 M
In short: as §1

muscarinic M3 receptor = molecular target: T2, muscarinic M3 receptor (Homo sapiens, UniProt P20309); test: Binding assay M3 (h), [3H]4-DAMP, CHO cells; details: read-out: M3 [%]
T2 construct: expressed in transfected cells; host or cells: CHO cells
In short: as §1

dopaminergic D2 receptor [2] = molecular target: T3, dopaminergic D2 receptor (Homo sapiens, UniProt P14416); test: Cellular functional assay, dopaminergic D2 receptor (agonism/antagonism); type: cell-based; details: HEK293; for activation at 1 µM: agonist effect, percent of control specific agonist response (3 μM dopamine for control), 1×10^−6 M, D2S (h), HEK-293 cells, read-out: D2-ag [%]; for inhibition at 1 µM: read-out: D2-antag. [%]
Experimental: (§2) The compounds were tested at the concentration of 1×10^−6M.
(§3) In the Tables ag refers to agonism, and antag to antagonism).
Target sequence in this assay (P14416 whole entry): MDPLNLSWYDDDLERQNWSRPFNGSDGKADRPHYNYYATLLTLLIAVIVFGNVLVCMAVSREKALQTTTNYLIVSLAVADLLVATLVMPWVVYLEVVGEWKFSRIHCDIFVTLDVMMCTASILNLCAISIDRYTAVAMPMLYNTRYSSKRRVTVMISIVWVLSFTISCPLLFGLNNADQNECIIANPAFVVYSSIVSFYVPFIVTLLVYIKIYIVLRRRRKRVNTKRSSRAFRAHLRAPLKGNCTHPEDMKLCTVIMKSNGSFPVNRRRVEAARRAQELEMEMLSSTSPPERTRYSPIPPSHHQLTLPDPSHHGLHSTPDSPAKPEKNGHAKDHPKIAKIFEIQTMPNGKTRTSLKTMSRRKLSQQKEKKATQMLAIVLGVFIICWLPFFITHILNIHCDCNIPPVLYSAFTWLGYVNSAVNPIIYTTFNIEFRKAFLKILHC

dopaminergic D3 receptor [3] = molecular target: T4, dopaminergic D3 receptor (Homo sapiens, UniProt P35462); test: Cellular functional assay, dopaminergic D3 receptor (agonism/antagonism); type: cell-based; details: for inhibition at 1 µM: CHO, read-out: D3-antag. [%]; for activation at 1 µM: agonist effect, percent of control specific agonist response (300 nM dopamine for control), 1×10^−6 M, D3 (h), CHO cells, read-out: D3-ag [%]
Experimental: as §2, §3

[4] = molecular target: serotoninergic 5-HT2A receptor (Homo sapiens, UniProt P28223); test: Cellular functional assay, serotoninergic 5-HT2A receptor (agonism/antagonism); type: cell-based; details: for activation at 1 µM: read-out: 5-HT2A -ag [%]; for inhibition at 1 µM: read-out: 5-HT2A -antag [%]
Experimental: […]. The compounds were tested at the concentration of 1×10^−6M.
Conditions and methodology (by reference to the literature) of cellular functional assays are given in Table 13 and the tests results for representative compounds are given in Table 14 (dopaminergic receptor D2), in Table 15 (dopaminergic receptor D3), in Table 16 (serotoninergic receptor 5-HT1A), in Table 17 (serotoninergic receptor 5-HT2A), in Table 18 (serotoninergic receptor 5-HT6), in Table 19 (serotoninergic receptor 5-HT7), in Table 20 (adrenergic α1 receptor), in Table 21 (adrenergic α2C receptor), in Table 22 (histaminergic H1 receptor) and in Table 23 (serotoninergic 5-HT2C receptor). In the Tables ag refers to agonism, and antag to antagonism).

[5] = molecular target: T5, serotoninergic 5-HT6 receptor (Homo sapiens, UniProt P50406); test: Cellular functional assay, serotoninergic 5-HT6 receptor (agonism/antagonism); type: cell-based; details: for activation at 1 µM: agonist effect, percent of control specific agonist response, compounds tested at 1×10^−6M, read-out: 5-HT6-ag [%]; for inhibition at 1 µM: read-out: 5-HT6-antag. [%]
Experimental: as §2, §3

[6] = molecular target: T6, serotoninergic 5-HT7 receptor (Homo sapiens, UniProt P34969); test: Cellular functional assay, serotoninergic 5-HT7 receptor (agonism/antagonism); type: cell-based; details: for activation at 1 µM: agonist effect, percent of control specific agonist response, compounds tested at 1×10^−6M, read-out: 5-HT7-ag [%]; for inhibition at 1 µM: read-out: 5-HT7-antag. [%]
Experimental: as §2, §3

adrenergic α2C receptor [7] = molecular target: T7, adrenergic α2C receptor (Homo sapiens, UniProt P18825); test: Cellular functional assay, adrenergic α2C receptor (agonism/antagonism); type: cell-based; details: for activation at 1 µM: agonist effect, percent of control specific agonist response, compounds tested at 1×10^−6M, read-out: α2C −ag [%]; for inhibition at 1 µM: read-out: α2C −antag. [%]
T7 sequence (P18825 1-462): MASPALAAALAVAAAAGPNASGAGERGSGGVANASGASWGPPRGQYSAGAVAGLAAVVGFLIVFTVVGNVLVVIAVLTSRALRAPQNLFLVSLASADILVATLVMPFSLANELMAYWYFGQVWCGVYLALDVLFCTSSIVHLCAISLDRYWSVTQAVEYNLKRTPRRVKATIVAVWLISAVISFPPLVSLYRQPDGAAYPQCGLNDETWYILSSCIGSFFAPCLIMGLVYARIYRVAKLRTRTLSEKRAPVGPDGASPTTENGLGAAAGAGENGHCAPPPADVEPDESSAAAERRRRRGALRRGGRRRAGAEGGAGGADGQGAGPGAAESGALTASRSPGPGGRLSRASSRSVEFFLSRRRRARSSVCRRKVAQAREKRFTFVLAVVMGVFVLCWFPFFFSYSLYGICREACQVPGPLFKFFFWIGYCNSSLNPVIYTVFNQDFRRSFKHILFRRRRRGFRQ
Experimental: as §2, §3

dopaminergic D3 receptor [8] = molecular target: T4, dopaminergic D3 receptor; test: Binding assay D3 (h), [3H]methyl-spiperone, CHO cells; design: expressed in transfected cells; host or cells: CHO cells; details: read-out: D3 [%]
In short: as §1

[9] = molecular target: T5, serotoninergic 5-HT6 receptor; test: Binding assay 5-HT6 (h), [3H]LSD, CHO cells; design: expressed in transfected cells; host or cells: CHO cells; details: read-out: 5-HT6
In short: as §1

[10] = molecular target: T6, serotoninergic 5-HT7 receptor; test: Binding assay 5-HT7 (h), [3H]LSD, CHO cells; design: expressed in transfected cells; host or cells: CHO cells; details: read-out: 5-HT7
In short: as §1

adrenergic α2C receptor [11] = molecular target: T7, adrenergic α2C receptor; test: Binding assay α2C (h), [3H]RX 821002, CHO cells; design: expressed in transfected cells; host or cells: CHO cells; details: read-out: α2C [%]
In short: as §1

dopaminergic D2 receptor [12] = molecular target: T3, dopaminergic D2 receptor; test: Binding assay D2S (h), [3H]methyl-spiperone, HEK-293 cells; design: expressed in transfected cells; host or cells: HEK-293 cells; details: read-out: D2 [%]
In short: as §1
Target sequence in this assay (P14416 1-414 isoform P14416-2): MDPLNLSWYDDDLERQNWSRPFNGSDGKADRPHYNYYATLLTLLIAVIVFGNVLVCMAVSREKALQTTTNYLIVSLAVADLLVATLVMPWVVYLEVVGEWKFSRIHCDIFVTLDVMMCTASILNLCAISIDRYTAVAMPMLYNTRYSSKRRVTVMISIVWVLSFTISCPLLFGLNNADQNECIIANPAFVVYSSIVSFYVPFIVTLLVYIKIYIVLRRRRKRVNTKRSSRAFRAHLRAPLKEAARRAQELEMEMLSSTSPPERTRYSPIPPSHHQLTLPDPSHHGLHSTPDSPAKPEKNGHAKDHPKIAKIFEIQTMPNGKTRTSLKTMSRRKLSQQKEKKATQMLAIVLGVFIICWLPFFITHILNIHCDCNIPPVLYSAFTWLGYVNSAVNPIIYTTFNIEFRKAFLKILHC

[13] = molecular target: T8, histaminergic H1 receptor (Homo sapiens, UniProt P35367); test: Binding assay H1 (h), [3H]pyrilamine, HEK-293 cells; design: expressed in transfected cells; host or cells: HEK-293 cells; details: read-out: H1 [%]
In short: as §1

[14] = molecular target: T8, histaminergic H1 receptor; test: Cellular functional assay, histaminergic H1 receptor (agonism/antagonism); type: cell-based; details: for activation at 1 µM: agonist effect, percent of control specific agonist response, compounds tested at 1×10^−6M, read-out: H1 -ag [%]; for inhibition at 1 µM: read-out: H1 -antag. [%]
Experimental: as §2, §3

T4 sequence (P35462 whole entry): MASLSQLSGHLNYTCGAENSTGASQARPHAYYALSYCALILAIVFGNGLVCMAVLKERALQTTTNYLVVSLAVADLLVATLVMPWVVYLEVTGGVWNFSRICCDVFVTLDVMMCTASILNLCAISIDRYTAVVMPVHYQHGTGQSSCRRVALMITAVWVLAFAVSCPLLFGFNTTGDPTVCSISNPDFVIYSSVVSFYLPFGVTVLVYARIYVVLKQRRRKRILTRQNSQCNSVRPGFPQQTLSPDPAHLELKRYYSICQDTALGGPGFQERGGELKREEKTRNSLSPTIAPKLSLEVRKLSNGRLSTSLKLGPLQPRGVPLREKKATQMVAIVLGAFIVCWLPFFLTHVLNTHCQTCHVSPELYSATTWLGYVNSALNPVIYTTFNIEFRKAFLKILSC
serotoninergic 5-HT2A receptor, sequence (P28223 whole entry): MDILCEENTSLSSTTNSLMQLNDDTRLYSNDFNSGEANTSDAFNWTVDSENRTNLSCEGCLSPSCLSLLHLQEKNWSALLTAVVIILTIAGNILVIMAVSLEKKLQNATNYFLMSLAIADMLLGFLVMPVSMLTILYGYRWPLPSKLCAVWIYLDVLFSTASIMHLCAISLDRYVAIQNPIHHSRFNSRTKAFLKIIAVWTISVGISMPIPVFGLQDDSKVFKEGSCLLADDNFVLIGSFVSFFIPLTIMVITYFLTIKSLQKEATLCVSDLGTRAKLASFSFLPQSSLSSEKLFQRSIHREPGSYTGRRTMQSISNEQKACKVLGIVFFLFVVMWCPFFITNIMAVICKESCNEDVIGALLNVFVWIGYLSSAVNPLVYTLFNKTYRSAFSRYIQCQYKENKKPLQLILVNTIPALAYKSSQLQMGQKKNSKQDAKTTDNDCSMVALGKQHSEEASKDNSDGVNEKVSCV
T1 sequence (P31645 whole entry): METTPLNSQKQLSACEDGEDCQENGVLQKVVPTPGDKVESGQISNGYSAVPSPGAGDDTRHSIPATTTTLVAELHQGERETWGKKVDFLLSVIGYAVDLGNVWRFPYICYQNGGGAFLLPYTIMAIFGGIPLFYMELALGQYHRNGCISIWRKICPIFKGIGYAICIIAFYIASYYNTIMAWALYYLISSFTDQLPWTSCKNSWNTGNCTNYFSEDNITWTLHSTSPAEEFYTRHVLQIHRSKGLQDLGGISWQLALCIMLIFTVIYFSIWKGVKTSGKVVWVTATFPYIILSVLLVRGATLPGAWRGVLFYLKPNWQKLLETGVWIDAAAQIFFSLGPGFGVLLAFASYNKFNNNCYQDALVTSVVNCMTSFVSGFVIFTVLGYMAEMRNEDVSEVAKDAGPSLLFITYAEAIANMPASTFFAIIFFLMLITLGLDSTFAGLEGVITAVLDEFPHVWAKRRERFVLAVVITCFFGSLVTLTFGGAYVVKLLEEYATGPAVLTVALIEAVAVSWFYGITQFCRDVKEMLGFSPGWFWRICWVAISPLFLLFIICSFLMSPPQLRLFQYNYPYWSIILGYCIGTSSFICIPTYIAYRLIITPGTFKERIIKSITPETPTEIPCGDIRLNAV
T5 sequence (P50406 whole entry): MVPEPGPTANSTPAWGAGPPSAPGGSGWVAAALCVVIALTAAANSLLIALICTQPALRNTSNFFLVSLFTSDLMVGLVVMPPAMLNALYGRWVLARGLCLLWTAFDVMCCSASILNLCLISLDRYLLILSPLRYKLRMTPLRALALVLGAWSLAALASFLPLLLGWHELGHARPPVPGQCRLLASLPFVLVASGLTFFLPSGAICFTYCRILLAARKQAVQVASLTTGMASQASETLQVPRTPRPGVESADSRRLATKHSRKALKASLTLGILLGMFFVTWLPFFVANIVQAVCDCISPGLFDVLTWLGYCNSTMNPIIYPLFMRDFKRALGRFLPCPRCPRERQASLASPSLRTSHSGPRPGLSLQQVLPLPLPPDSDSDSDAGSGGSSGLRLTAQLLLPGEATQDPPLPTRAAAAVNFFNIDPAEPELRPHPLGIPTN
T2 sequence (P20309 whole entry): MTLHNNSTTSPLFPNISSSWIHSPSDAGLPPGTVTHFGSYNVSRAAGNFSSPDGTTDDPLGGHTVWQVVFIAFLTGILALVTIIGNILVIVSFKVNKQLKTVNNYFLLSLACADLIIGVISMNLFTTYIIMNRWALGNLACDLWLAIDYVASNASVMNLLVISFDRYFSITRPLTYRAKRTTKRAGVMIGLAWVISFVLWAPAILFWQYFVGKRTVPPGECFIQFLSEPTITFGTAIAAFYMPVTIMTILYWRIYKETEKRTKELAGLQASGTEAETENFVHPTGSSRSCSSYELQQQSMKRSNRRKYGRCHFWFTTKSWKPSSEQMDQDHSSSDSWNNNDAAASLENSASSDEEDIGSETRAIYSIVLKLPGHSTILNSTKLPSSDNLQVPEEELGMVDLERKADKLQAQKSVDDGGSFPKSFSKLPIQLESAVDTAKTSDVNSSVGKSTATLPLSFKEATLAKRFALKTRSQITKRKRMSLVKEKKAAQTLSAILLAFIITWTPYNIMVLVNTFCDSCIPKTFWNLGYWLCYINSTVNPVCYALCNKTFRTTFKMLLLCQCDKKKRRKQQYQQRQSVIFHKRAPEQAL
T6 sequence (P34969 whole entry): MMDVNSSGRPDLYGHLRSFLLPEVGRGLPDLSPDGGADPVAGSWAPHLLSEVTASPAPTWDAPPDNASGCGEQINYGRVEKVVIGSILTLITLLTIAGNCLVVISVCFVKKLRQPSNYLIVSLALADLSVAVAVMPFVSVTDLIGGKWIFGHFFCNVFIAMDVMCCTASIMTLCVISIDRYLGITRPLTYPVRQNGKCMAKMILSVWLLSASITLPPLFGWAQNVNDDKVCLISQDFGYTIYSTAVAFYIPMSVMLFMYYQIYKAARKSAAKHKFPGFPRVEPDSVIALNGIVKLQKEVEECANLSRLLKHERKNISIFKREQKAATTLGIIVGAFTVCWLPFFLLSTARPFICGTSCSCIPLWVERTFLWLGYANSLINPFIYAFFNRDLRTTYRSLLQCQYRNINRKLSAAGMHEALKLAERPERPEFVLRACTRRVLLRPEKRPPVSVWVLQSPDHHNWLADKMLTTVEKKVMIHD
T8 sequence (P35367 whole entry): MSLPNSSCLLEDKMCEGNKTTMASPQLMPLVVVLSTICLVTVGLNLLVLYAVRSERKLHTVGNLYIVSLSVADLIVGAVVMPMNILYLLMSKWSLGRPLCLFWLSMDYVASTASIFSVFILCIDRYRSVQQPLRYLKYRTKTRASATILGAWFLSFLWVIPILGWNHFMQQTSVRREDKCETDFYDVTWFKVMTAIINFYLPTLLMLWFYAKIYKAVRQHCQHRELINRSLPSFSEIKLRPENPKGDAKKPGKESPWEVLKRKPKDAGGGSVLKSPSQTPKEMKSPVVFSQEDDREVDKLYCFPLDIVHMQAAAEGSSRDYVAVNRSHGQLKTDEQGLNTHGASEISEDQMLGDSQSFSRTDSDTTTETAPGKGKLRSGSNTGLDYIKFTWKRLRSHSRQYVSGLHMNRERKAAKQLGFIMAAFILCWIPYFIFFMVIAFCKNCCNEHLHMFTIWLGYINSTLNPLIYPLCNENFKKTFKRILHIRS

| SMILES | inhibition at 1 µM [1] [%] | σ [%] (sigma σ receptor) | α1 [%] (adrenergic α1 receptor) | inhibition at 1 µM (muscarinic M3 receptor) [%] | activation at 1 µM (dopaminergic D2 receptor [2]) [%] | inhibition at 1 µM (dopaminergic D2 receptor [2]) [%] | activation at 1 µM [4] [%] | inhibition at 1 µM [4] [%] | activation at 1 µM [5] [%] | inhibition at 1 µM [5] [%] | activation at 1 µM [6] [%] | inhibition at 1 µM [6] [%] | activation at 1 µM (adrenergic α2C receptor [7]) [%] | inhibition at 1 µM (adrenergic α2C receptor [7]) [%] | inhibition at 1 µM (dopaminergic D3 receptor [8]) [%] | inhibition at 1 µM [9] [%] | inhibition at 1 µM [10] [%] | inhibition at 1 µM (adrenergic α2C receptor [11]) [%] | inhibition at 1 µM (dopaminergic D2 receptor [12]) [%] | inhibition at 1 µM [13] [%] | also measured |
| --- | --- | --- | --- | --- | --- | --- | --- | --- | --- | --- | --- | --- | --- | --- | --- | --- | --- | --- | --- | --- | --- |
| O=S(=O)(NCCCCN1CCN(c2noc3ccccc23)CC1)c1ccc2ccccc2c1 [Compound 14, N-(4-(4-(1,2-Benzoxazol-3-yl)piperazin-1-yl)butyl)naphthalene-2-sulphonamide] | 3 | 40 | 102 | -6 | 4 | 98 | 1 | 100 | 1 | 69 | -1 | 85 | -3 | 12 | 97 | 99 | 99 | 100 | 99 | 88 | inhibition at 1 µM (dopaminergic D3 receptor [3]): 92%; activation at 1 µM (dopaminergic D3 receptor [3]): -15% |
| O=S(=O)(NCCCCN1CCC(c2noc3cc(F)ccc23)CC1)c1ccc2ccccc2c1 [Compound 18, N-[4-[4-(6-Fluoro-1,2-benzoxazol-3-yl)piperidin-1-yl]butyl]naphthalene-2-sulphonamide] | 39 |  |  | 6 | -1 | 98 | -1 | 102 | 1 | 87 | -1 | 89 | -10 | 28 | 98 | 100 | 98 | 100 | 98 | 79 | inhibition at 1 µM (dopaminergic D3 receptor [3]): 114%; activation at 1 µM (dopaminergic D3 receptor [3]): -27% |
| Cc1cccc(S(=O)(=O)NCCCN2CCC(c3noc4cc(F)ccc34)CC2)c1 [Compound 22, N-[3-[4-(6-Fluoro-1,2-benzoxazol-3-yl)piperidin-1-yl]propyl]-3-methylbenzenesulphonamide] | 44 | 92 | 100 | 12 | 2 | 99 | -1 | 102 | 1 | 82 | -1 | 100 | -8 | 12 | 96 | 99 | 99 | 100 | 96 | 88 | inhibition at 1 µM (dopaminergic D3 receptor [3]): 81%; activation at 1 µM (dopaminergic D3 receptor [3]): -25% |
| Cc1c(S(=O)(=O)NCCCCN2CCN(c3nsc4ccccc34)CC2)sc2ccc(F)cc12 [Compound 65, N-[4-[4-(1,2-Benzothiazol-3-yl)piperazin-1-yl]butyl]-5-fluoro-3-methylbenzothiophene-2-sulphonamide] | 57 | 62 | 95 | 8 | 10 | 74 | -2 | 98 | -1 | 81 | -2 | 91 | 8 | 20 | 74 | 97 | 98 | 104 | 99 | 95 | activation at 1 µM [14]: 0%; inhibition at 1 µM [14]: 60% |
| O=S(=O)(NCCCCN1CCN(c2noc3ccccc23)CC1)c1ccc(-c2ccccc2)cc1 [Compound 283, N-[4-[4-(1,2-Benzoxazol-3-yl)piperazin-1-yl]butyl]-4-phenylbenzenesulphonamide] | 24 | 34 | 92 | -4 |  |  | 0 | 99 | 0 | 64 | -2 | 93 | 2 | 25 | 101 | 96 | 99 | 109 | 99 | 96 | inhibition at 1 µM (dopaminergic D3 receptor [3]): 58%; activation at 1 µM (dopaminergic D3 receptor [3]): -10%; activation at 1 µM [14]: 0%; inhibition at 1 µM [14]: 41% |
| O=S(=O)(NCCCCN1CCC(c2noc3cc(F)ccc23)CC1)c1cc2ccccc2s1 [Compound 312, N-[4-[4-(6-Fluoro-1,2-benzoxazol-3-yl)piperidin-1-yl]butyl]benzothiophene-2-sulphonamide] | 35 | 71 | 100 | 19 | 4 | 90 | -2 | 98 | -1 | 76 | -2 | 97 | 61 | 39 | 97 | 98 | 97 | 92 | 99 | 86 | inhibition at 1 µM (dopaminergic D3 receptor [3]): 97%; activation at 1 µM (dopaminergic D3 receptor [3]): 10% |
